Tests used:
LOX IMVI = assay: NCI60 five-dose screen; assay type: cell-based; settings: Homo sapiens, melanoma; for CC50: read-out: LC50 (the source's name)
CCRF-CEM = assay: NCI60 five-dose screen; assay type: cell-based; settings: Homo sapiens, leukemia; for CC50: read-out: LC50 (the source's name)
HOP-92 = assay: NCI60 five-dose screen; assay type: cell-based; settings: Homo sapiens, HOP-92, NSC lung cancer; for CC50: read-out: LC50 (the source's name)
[1] = Cytotoxicity MTT assay, L929; assay type: cell-based, mouse; settings: mouse, L929 fibroblast cells; MTT, 48 hours
Method in brief: (§1)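 10 000 cells/well, overnight attachment; compound 48 h in DMEM/10% FBS, 37 °C, 5% CO2. MTT 0.5 mg mL^−1, 3 h; formazan in DMSO; A570. % viability vs DMSO vehicle.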

[2] = test system: L929 normal mouse fibroblast cell line; assay: Cytotoxicity MTT assay, L929; assay type: cell-based; settings: IC50 (L929)/IC50 (T47D)
Method in brief: as §1

SK-MEL-2 = assay: NCI60 five-dose screen; assay type: cell-based; settings: Homo sapiens, SK-MEL-2, melanoma; for CC50: read-out: LC50 (the source's name)
UACC-62 = assay: NCI60 five-dose screen; assay type: cell-based; settings: Homo sapiens, UACC-62, melanoma; for CC50: read-out: LC50 (the source's name)
HCT-116 = assay: NCI60 five-dose screen; assay type: cell-based; settings: Homo sapiens, HCT-116, colon cancer; for CC50: read-out: LC50 (the source's name)
TK-10 = assay: NCI60 five-dose screen; assay type: cell-based; settings: Homo sapiens, TK-10, renal cancer; for CC50: read-out: LC50 (the source's name)
MDA-MB-468 = assay: NCI60 five-dose screen; assay type: cell-based; settings: Homo sapiens, MDA-MB-468, breast cancer; for CC50: read-out: LC50 (the source's name)
SK-MEL-28 = assay: NCI60 five-dose screen; assay type: cell-based; settings: Homo sapiens, SK-MEL-28, melanoma; for CC50: read-out: LC50 (the source's name)
RPMI-8226 = assay: NCI60 five-dose screen; assay type: cell-based; settings: Homo sapiens, RPMI-8226, leukemia; for CC50: read-out: LC50 (the source's name)
CAKI-1 = assay: NCI60 five-dose screen; assay type: cell-based; settings: Homo sapiens, CAKI-1, renal cancer; for CC50: read-out: LC50 (the source's name)
[3] = test system: T47D breast cancer cell line; assay: Cytotoxicity MTT assay, T47D; assay type: cell-based, human; settings: Homo sapiens, T47D; MTT, 48 hours
Method in brief: as §1

SNB-75 = assay: NCI60 five-dose screen; assay type: cell-based; settings: Homo sapiens, SNB-75, CNS cancer; for CC50: read-out: LC50 (the source's name)
COLO 205 = assay: NCI60 five-dose screen; assay type: cell-based, human; settings: Homo sapiens; for CC50: COLO 205, COLO 205, colon cancer, read-out: LC50 (the source's name); for GI50: COLO 205, colon cancer
HT29 = assay: NCI60 five-dose screen; assay type: cell-based; settings: Homo sapiens, HT-29, HT29, colon cancer; for CC50: read-out: LC50 (the source's name)
786-0 = assay: NCI60 five-dose screen; assay type: cell-based; settings: Homo sapiens, 786-0, renal cancer; for CC50: read-out: LC50 (the source's name)
SF-268 = assay: NCI60 five-dose screen; assay type: cell-based; settings: Homo sapiens, SF-268, CNS cancer; for CC50: read-out: LC50 (the source's name)
A498 = assay: NCI60 five-dose screen; assay type: cell-based; settings: Homo sapiens, A498, renal cancer; for CC50: read-out: LC50 (the source's name)
HOP-62 = assay: NCI60 five-dose screen; assay type: cell-based; settings: Homo sapiens, HOP-62, NSC lung cancer; for CC50: read-out: LC50 (the source's name)
SN12C = assay: NCI60 five-dose screen; assay type: cell-based; settings: Homo sapiens, renal cancer; for CC50: read-out: LC50 (the source's name)
UO-31 = assay: NCI60 five-dose screen; assay type: cell-based; settings: Homo sapiens, UO-31, renal cancer; for CC50: read-out: LC50 (the source's name)
SK-MEL-5 = assay: NCI60 five-dose screen; assay type: cell-based, human; settings: Homo sapiens; for CC50: SK-MEL-5, SK-MEL-5, melanoma, read-out: LC50 (the source's name); for GI50: SK-MEL-5, melanoma
OVCAR-5 = assay: NCI60 five-dose screen; assay type: cell-based; settings: Homo sapiens, OVCAR-5, ovarian cancer; for CC50: read-out: LC50 (the source's name)
ACHN = assay: NCI60 five-dose screen; assay type: cell-based; settings: Homo sapiens, renal cancer; for CC50: read-out: LC50 (the source's name)
OVCAR-3 = assay: NCI60 five-dose screen; assay type: cell-based; settings: Homo sapiens, OVCAR-3, ovarian cancer; for CC50: read-out: LC50 (the source's name)
U251 = assay: NCI60 five-dose screen; assay type: cell-based; settings: Homo sapiens, U-251, U251, CNS cancer; for CC50: read-out: LC50 (the source's name)
PC-3 = assay: NCI60 five-dose screen; assay type: cell-based; settings: Homo sapiens, PC-3, prostate cancer; for CC50: read-out: LC50 (the source's name)
IGROV1 = assay: NCI60 five-dose screen; assay type: cell-based; settings: Homo sapiens, IGROV-1; IGROV1, ovarian cancer
BT-549 = assay: NCI60 five-dose screen; assay type: cell-based; settings: Homo sapiens, BT-549, breast cancer; for CC50: read-out: LC50 (the source's name)

O=C(N/N=C/c1cc(Br)c(Br)[nH]1)c1[nH]c2ccc(Br)cc2c1-c1ccccc1 [Derivative 3f, (E)-5-Bromo-N′-((4,5-dibromo-1H-pyrrol-2-yl)methylene)-3-phenyl-1H-indole-2-carbohydrazide]
GI50 (LOX IMVI): 2310 nM
CC50 (LOX IMVI): 31.8 µM
GI50 (CCRF-CEM): 2890 nM
CC50 (CCRF-CEM): > 100 µM
GI50 (HOP-92): 1880 nM
CC50 (HOP-92): 46 µM
IC50 at 48 h [1]: 47.9 ± 0.5 µM
Selectivity index (SI) [2]: 2.51
GI50 (SK-MEL-2): 2680 nM
CC50 (SK-MEL-2): 36.3 µM
GI50 (UACC-62): 1200 nM
CC50 (UACC-62): 38 µM
GI50 (HCT-116): 3240 nM
CC50 (HCT-116): > 100 µM
GI50 (TK-10): 6.8 µM
CC50 (TK-10): 49.5 µM
GI50 (MDA-MB-468): 2090 nM
CC50 (MDA-MB-468): 22.8 µM
GI50 (SK-MEL-28): 5100 nM
CC50 (SK-MEL-28): 47 µM
GI50 (RPMI-8226): 2270 nM
CC50 (RPMI-8226): > 100 µM
GI50 (CAKI-1): 1380 nM
CC50 (CAKI-1): 40.9 µM
IC50 [3]: 19.1 ± 5.4 µM
GI50 (SNB-75): 1080 nM
CC50 (SNB-75): 64.4 µM
CC50 (COLO 205): 48.8 µM
GI50 (COLO 205): 3360 nM
GI50 (HT29): 2330 nM
CC50 (HT29): 20.8 µM
GI50 (786-0): 4910 nM
CC50 (786-0): 64.1 µM
GI50 (SF-268): 2570 nM
CC50 (SF-268): 65.3 µM
GI50 (A498): 11.1 µM
CC50 (A498): 49.4 µM
GI50 (HOP-62): 3.52 µM
CC50 (HOP-62): > 100 µM
GI50 (SN12C): 2150 nM
CC50 (SN12C): 30.7 µM
GI50 (UO-31): 1940 nM
CC50 (UO-31): 38.5 µM
CC50 (SK-MEL-5): 8.65 µM
GI50 (SK-MEL-5): 1720 nM
GI50 (OVCAR-5): 3600 nM
CC50 (OVCAR-5): 40.2 µM
GI50 (ACHN): 2590 nM
CC50 (ACHN): 35.5 µM
GI50 (OVCAR-3): 2300 nM
CC50 (OVCAR-3): 24.5 µM
GI50 (U251): 2950 nM
CC50 (U251): 36 µM
GI50 (PC-3): 2290 nM
CC50 (PC-3): 63.3 µM
GI50 (IGROV1): 530 nM
GI50 (BT-549): 3.69 µM
CC50 (BT-549): 90.8 µM

O=C(N/N=C/c1[nH]ccc1Cl)c1[nH]c2ccc(Br)cc2c1-c1ccccc1 [Derivative 3g, (E)-5-Bromo-N′-((3-chloro-1H-pyrrol-2-yl)methylene)-3-phenyl-1H-indole-2-carbohydrazide]
GI50 (LOX IMVI): 555 nM
CC50 (LOX IMVI): 29.4 µM
GI50 (CCRF-CEM): 1530 nM
CC50 (CCRF-CEM): > 100 µM
GI50 (HOP-92): 2790 nM
CC50 (HOP-92): 50.1 µM
IC50 at 48 h [1]: 20.1 ± 10.3 µM
Selectivity index (SI) [2]: 2.45
GI50 (SK-MEL-2): 1070 nM
CC50 (SK-MEL-2): 38.7 µM
GI50 (UACC-62): 411 nM
CC50 (UACC-62): 37 µM
GI50 (HCT-116): 467 nM
CC50 (HCT-116): 79.9 µM
GI50 (TK-10): 7.16 µM
CC50 (TK-10): 49.5 µM
GI50 (MDA-MB-468): 297 nM
CC50 (MDA-MB-468): 24.7 µM
GI50 (SK-MEL-28): 909 nM
CC50 (SK-MEL-28): 47.5 µM
GI50 (RPMI-8226): 855 nM
CC50 (RPMI-8226): > 100 µM
GI50 (CAKI-1): 445 nM
CC50 (CAKI-1): 36.9 µM
IC50 [3]: 8.2 ± 1.8 µM
GI50 (SNB-75): 325 nM
CC50 (SNB-75): 38.6 µM
CC50 (COLO 205): 40.3 µM
GI50 (COLO 205): 1660 nM
GI50 (HT29): 401 nM
CC50 (HT29): 58.5 µM
GI50 (786-0): 2580 nM
CC50 (786-0): 50.2 µM
GI50 (SF-268): 1760 nM
CC50 (SF-268): 53 µM
GI50 (A498): 10.6 µM
CC50 (A498): 49.3 µM
GI50 (HOP-62): 3.8 µM
CC50 (HOP-62): 60.8 µM
GI50 (SN12C): 1340 nM
CC50 (SN12C): 29.2 µM
GI50 (UO-31): 577 nM
CC50 (UO-31): 35.7 µM
CC50 (SK-MEL-5): 63 µM
GI50 (SK-MEL-5): 427 nM
GI50 (OVCAR-5): 1100 nM
CC50 (OVCAR-5): 35.7 µM
GI50 (ACHN): 627 nM
CC50 (ACHN): 34.5 µM
GI50 (OVCAR-3): 409 nM
CC50 (OVCAR-3): 34.9 µM
GI50 (U251): 630 nM
CC50 (U251): 37.7 µM
GI50 (PC-3): 826 nM
CC50 (PC-3): 63.6 µM
GI50 (IGROV1): 734 nM
GI50 (BT-549): 3.56 µM
CC50 (BT-549): 46.8 µM

CCc1ccc(/C=N/NC(=O)c2[nH]c3ccc(Br)cc3c2-c2ccccc2)[nH]1 [Derivative 3s, (E)-5-Bromo-N′-((5-ethyl-1H-pyrrol-2-yl)methylene)-3-phenyl-1H-indole-2-carbohydrazide]
GI50 (LOX IMVI): 722 nM
CC50 (LOX IMVI): 36.1 µM
GI50 (CCRF-CEM): 375 nM
CC50 (CCRF-CEM): > 100 µM
GI50 (HOP-92): 2010 nM
CC50 (HOP-92): 40.1 µM
IC50 at 48 h [1]: 19.5 ± 11.8 µM
Selectivity index (SI) [2]: 5.13
GI50 (SK-MEL-2): 647 nM
CC50 (SK-MEL-2): 45.9 µM
GI50 (UACC-62): 381 nM
CC50 (UACC-62): 38.1 µM
GI50 (HCT-116): 325 nM
CC50 (HCT-116): 31.9 µM
GI50 (TK-10): 2.91 µM
CC50 (TK-10): 46.3 µM
GI50 (MDA-MB-468): 248 nM
CC50 (MDA-MB-468): 25.9 µM
GI50 (SK-MEL-28): 979 nM
CC50 (SK-MEL-28): 49.8 µM
GI50 (RPMI-8226): 375 nM
CC50 (RPMI-8226): > 100 µM
GI50 (CAKI-1): 1040 nM
CC50 (CAKI-1): 56.2 µM
IC50 [3]: 3.8 ± 1 µM
GI50 (SNB-75): 285 nM
CC50 (SNB-75): 54.1 µM
CC50 (COLO 205): 26.1 µM
GI50 (COLO 205): 316 nM
GI50 (HT29): 298 nM
CC50 (HT29): 33.8 µM
GI50 (786-0): 801 nM
CC50 (786-0): 47.4 µM
GI50 (SF-268): 1470 nM
CC50 (SF-268): 83 µM
GI50 (A498): 5.59 µM
CC50 (A498): 47.2 µM
GI50 (HOP-62): 0.861 µM
CC50 (HOP-62): 46.2 µM
GI50 (SN12C): 392 nM
CC50 (SN12C): 30.3 µM
GI50 (UO-31): 644 nM
CC50 (UO-31): 59.9 µM
CC50 (SK-MEL-5): 10.1 µM
GI50 (SK-MEL-5): 381 nM
GI50 (OVCAR-5): 573 nM
CC50 (OVCAR-5): 38.7 µM
GI50 (ACHN): 861 nM
CC50 (ACHN): 36.6 µM
GI50 (OVCAR-3): 356 nM
CC50 (OVCAR-3): 36.1 µM
GI50 (U251): 329 nM
CC50 (U251): 36.7 µM
GI50 (PC-3): 532 nM
CC50 (PC-3): > 100 µM
GI50 (IGROV1): 612 nM
LC50 (concentration causing 50% net cell kill) (IGROV1): 43.3 µM
GI50 (BT-549): 0.979 µM
CC50 (BT-549): 30.3 µM

Source: article PMC12203311, “Design, synthesis, in silico and in vitro evaluation of pyrrole–indole hybrids as dual tubulin and aromatase inhibitors with potent anticancer activities” (RSC Advances, 2025)
